Measured values from ChEMBL document CHEMBL1201862, “PubChem BioAssay data set” (2004).
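In this assay, cells in 96-well plates receive the compound at five concentrations for 48 hours. Endpoints are linearly interpolated between the surrounding concentrations. GI50 marks 50% less growth.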 The source made the active and inactive calls. Cut-off read from the data, not from the text of the source: active = GI50 up to about 1.1 µM and inactive = higher.

Experiments:
Test in all cases: NCI tumour cell line growth inhibition, 48 h
HCC 2998 = test system: HCC 2998
HT-29 = test system: HT-29
LOX IMVI = test system: LOX IMVI
SF-295 = test system: SF-295
PC-3 = test system: PC-3
HCT-116 = test system: HCT-116
SN12C = test system: SN12C
ACHN = test system: ACHN
NCI-H522 = test system: NCI-H522
MOLT-4 = test system: MOLT-4
Hs-578T = test system: Hs-578T
M14 = test system: M14
NCI-H226 = test system: NCI-H226
UO-31 = test system: UO-31
MDA-MB-231 = test system: MDA-MB-231
SK-MEL-2 = test system: SK-MEL-2
OVCAR-3 = test system: OVCAR-3
MDA-MB-435 = test system: MDA-MB-435
SNB-19 = test system: SNB-19
CAKI-1 = test system: CAKI-1
DU-145 = test system: DU-145
OVCAR-8 = test system: OVCAR-8
IGROV-1 = test system: IGROV-1
SF-539 = test system: SF-539
TK-10 = test system: TK-10
SR = test system: SR
COLO 205 = test system: COLO 205
NCI-H23 = test system: NCI-H23
BT-549 = test system: BT-549
A549 = test system: A549
HL-60 = test system: HL-60
Malme-3M = test system: Malme-3M
OVCAR-4 = test system: OVCAR-4
KM12 = test system: KM12
HCT-15 = test system: HCT-15
RPMI-8226 = test system: RPMI-8226
SF-268 = test system: SF-268
EKVX = test system: EKVX
MCF7 = test system: MCF7
SK-MEL-28 = test system: SK-MEL-28
RXF 393 = test system: RXF 393
T47D = test system: T47D
K562 = test system: K562
SK-MEL-5 = test system: SK-MEL-5
786-0 = test system: 786-0
SK-OV-3 = test system: SK-OV-3
UACC-257 = test system: UACC-257
NCI-H460 = test system: NCI-H460
HOP-62 = test system: HOP-62
SW-620 = test system: SW-620
NCI/ADR-RES = test system: NCI/ADR-RES
MDA-N = test system: MDA-N
HOP-92 = test system: HOP-92
UACC-62 = test system: UACC-62
SNB-75 = test system: SNB-75
OVCAR-5 = test system: OVCAR-5
U-251 = test system: U-251
CCRF-CEM = test system: CCRF-CEM
A498 = test system: A498

## CC(=O)C1=CC=C/C1=N\Nc1ccccc1
HCC 2998
  GI50: 6.07 µM (inactive)
HT-29
  GI50: 3.83 µM (inactive)
LOX IMVI
  GI50: 2.84 µM (inactive)
SF-295
  GI50: 11.8 µM (inactive)
PC-3
  GI50: 5.45 µM (inactive)
HCT-116
  GI50: 4.99 µM (inactive)
SN12C
  GI50: 5.81 µM (inactive)
ACHN
  GI50: 11.2 µM (inactive)
NCI-H522
  GI50: 4.71 µM (inactive)
MOLT-4
  GI50: 3.67 µM (inactive)
Hs-578T
  GI50: 4.48 µM (inactive)
M14
  GI50: 10.8 µM (inactive)
NCI-H226
  GI50: 17.3 µM (inactive)
UO-31
  GI50: 13.1 µM (inactive)
MDA-MB-231
  GI50: 10 µM (inactive)
SK-MEL-2
  GI50: 13.4 µM (inactive)
OVCAR-3
  GI50: 3.22 µM (inactive)
MDA-MB-435
  GI50: 13.1 µM (inactive)
SNB-19
  GI50: 21.1 µM (inactive)
CAKI-1
  GI50: 3.91 µM (inactive)
DU-145
  GI50: 14.9 µM (inactive)
OVCAR-8
  GI50: 9.73 µM (inactive)
IGROV-1
  GI50: 7.4 µM (inactive)
SF-539
  GI50: 2.36 µM (inactive)
TK-10
  GI50: 7.14 µM (inactive)
SR
  GI50: 0.543 µM (active)
COLO 205
  GI50: 9.42 µM (inactive)
NCI-H23
  GI50: 9.06 µM (inactive)
BT-549
  GI50: 11 µM (inactive)
A549
  GI50: 15.1 µM (inactive)
HL-60
  GI50: 0.647 µM (active)
Malme-3M
  GI50: 14.6 µM (inactive)
OVCAR-4
  GI50: 5.71 µM (inactive)
KM12
  GI50: 4.38 µM (inactive)
HCT-15
  GI50: 5.14 µM
RPMI-8226
  GI50: 1.98 µM (inactive)
SF-268
  GI50: 7.43 µM (inactive)
EKVX
  GI50: 5.6 µM (inactive)
MCF7
  GI50: 1.29 µM (inactive)
SK-MEL-28
  GI50: 14 µM (inactive)
RXF 393
  GI50: 11.6 µM (inactive)
T47D
  GI50: 3.33 µM (inactive)
K562
  GI50: 3.94 µM (inactive)
SK-MEL-5
  GI50: 15.6 µM (inactive)
786-0
  GI50: 4.31 µM (inactive)
SK-OV-3
  GI50: 16.6 µM (inactive)
UACC-257
  GI50: 15.5 µM (inactive)
NCI-H460
  GI50: 11.6 µM (inactive)
HOP-62
  GI50: 20.8 µM (inactive)
SW-620
  GI50: 3.82 µM (inactive)
NCI/ADR-RES
  GI50: 5.28 µM (inactive)
MDA-N
  GI50: 6.22 µM (inactive)
HOP-92
  GI50: 11.7 µM (inactive)
UACC-62
  GI50: 6.97 µM (inactive)
SNB-75
  GI50: 9.33 µM (inactive)
OVCAR-5
  GI50: 7 µM (inactive)
U-251
  GI50: 2.97 µM (inactive)
CCRF-CEM
  GI50: 2.94 µM (inactive)

## O=C(O)c1ccccc1C(=O)c1ccc2c(c1)Cc1ccccc1-2
HCC 2998
  GI50: 28.1 µM (inactive)
HT-29
  GI50: 48.8 µM (inactive)
LOX IMVI
  GI50: 85.7 µM (inactive)
SF-295
  GI50: 69.7 µM (inactive)
PC-3
  GI50: 66.4 µM (inactive)
HCT-116
  GI50: 73.5 µM (inactive)
SN12C
  GI50: > 100 µM (inactive)
ACHN
  GI50: 56.6 µM (inactive)
NCI-H522
  GI50: 41.9 µM (inactive)
MOLT-4
  GI50: > 100 µM (inactive)
Hs-578T
  GI50: > 100 µM (inactive)
M14
  GI50: > 100 µM (inactive)
NCI-H226
  GI50: 36.1 µM (inactive)
UO-31
  GI50: > 100 µM (inactive)
MDA-MB-231
  GI50: > 100 µM (inactive)
SK-MEL-2
  GI50: > 100 µM (inactive)
OVCAR-3
  GI50: > 100 µM (inactive)
MDA-MB-435
  GI50: 63.4 µM (inactive)
SNB-19
  GI50: > 100 µM (inactive)
CAKI-1
  GI50: > 100 µM (inactive)
DU-145
  GI50: > 100 µM (inactive)
OVCAR-8
  GI50: 83.2 µM (inactive)
IGROV-1
  GI50: > 100 µM (inactive)
A498
  GI50: > 100 µM (inactive)
SF-539
  GI50: > 100 µM (inactive)
TK-10
  GI50: 52.1 µM (inactive)
SR
  GI50: 91.6 µM (inactive)
COLO 205
  GI50: 57 µM (inactive)
NCI-H23
  GI50: > 100 µM (inactive)
BT-549
  GI50: 78.9 µM (inactive)
A549
  GI50: 33.3 µM (inactive)
Malme-3M
  GI50: 80.9 µM (inactive)
OVCAR-4
  GI50: > 100 µM (inactive)
KM12
  GI50: 64.1 µM (inactive)
HCT-15
  GI50: 57.5 µM
RPMI-8226
  GI50: 60.8 µM (inactive)
SF-268
  GI50: > 100 µM (inactive)
EKVX
  GI50: 68.5 µM (inactive)
MCF7
  GI50: > 100 µM (inactive)
SK-MEL-28
  GI50: 53.7 µM (inactive)
RXF 393
  GI50: > 100 µM (inactive)
T47D
  GI50: 80.4 µM (inactive)
K562
  GI50: 57.9 µM (inactive)
SK-MEL-5
  GI50: > 100 µM (inactive)
786-0
  GI50: > 100 µM (inactive)
SK-OV-3
  GI50: > 100 µM (inactive)
UACC-257
  GI50: > 100 µM (inactive)
NCI-H460
  GI50: 46.1 µM (inactive)
HOP-62
  GI50: > 100 µM (inactive)
SW-620
  GI50: > 100 µM (inactive)
NCI/ADR-RES
  GI50: 99.1 µM (inactive)
MDA-N
  GI50: 48.8 µM (inactive)
HOP-92
  GI50: > 100 µM (inactive)
UACC-62
  GI50: 66.8 µM (inactive)
SNB-75
  GI50: > 100 µM (inactive)
OVCAR-5
  GI50: > 100 µM (inactive)
U-251
  GI50: 54 µM (inactive)
